In ChEMBL document CHEMBL1133071, “Potent in vitro methicillin-resistant Staphylococcus aureus activity of 2-(1H-indol-3-yl)quinoline derivatives” (2000):
In brackets after ≈: the same amount, converted by molar mass.

What was measured:
Assay type in all cases: functional
Enterococcus faecium = experiment: Minimum inhibitory concentration against vancomycin resistant Enterococcus faecium (VRE)
Staphylococcus aureus [1] = experiment: Minimum inhibitory concentration against methicillin resistant staphylococcus aureus (MRSA)
Staphylococcus aureus [2] = experiment: The compound was evaluated in vitro for minimum inhibitory concentration against staphylococcus aureus HP-5827
Staphylococcus aureus [3] = experiment: The compound was evaluated in vitro for minimum inhibitory concentration against staphylococcus aureus HP-5836

Row | Compound | MIC (Enterococcus faecium) | MIC (Staphylococcus aureus [1]) | MIC (Staphylococcus aureus [2]) | MIC (Staphylococcus aureus [3])
1 | Clc1ccc2ccc(-c3c[nH]c4ccc(Br)cc34)nc2c1 | > 25 µg/mL | 0.6 µg/mL (≈ 1.68 µM) |  | 
2 | NCCNC(=O)c1cc(-c2c[nH]c3ccc(Br)cc23)nc2ccc(Cl)cc12.O=C(O)C(F)(F)F | 3.13 µg/mL | 1.56 µg/mL |  | 
3 | Clc1ccc2c(Cl)cc(-c3c[nH]c4ccc(Br)cc34)nc2c1 | 3.13 µg/mL (≈ 7.98 µM) | < 0.39 µg/mL |  | 
4 | Clc1ccc2nc(-c3c[nH]c4ccccc34)ccc2c1 | > 25 µg/mL | 5 µg/mL (≈ 17.9 µM) |  | 
5 | Oc1ccc2[nH]cc(-c3ccc4cc(Cl)ccc4n3)c2c1 | > 25 µg/mL | 12.5 µg/mL (≈ 42.4 µM) |  | 
6 | Clc1ccc2nc(-c3c[nH]c4c(Cl)cccc34)ccc2c1 | > 25 µg/mL | > 25 µg/mL |  | 
7 | OCc1cc(-c2c[nH]c3ccc(Br)cc23)nc2cc(Cl)ccc12 | 2.5 µg/mL (≈ 6.45 µM) | 0.31 µg/mL (≈ 0.8 µM) |  | 
8 | Clc1ccc2nc(-c3c[nH]c4ccc(Cl)cc34)ccc2c1 | > 25 µg/mL | 0.78 µg/mL (≈ 2.49 µM) |  | 
9 | NCCNC(=O)c1cc(-c2c[nH]c3ccc(Br)cc23)nc2c(Cl)cccc12.O=C(O)C(F)(F)F | 3.13 µg/mL | 1.56 µg/mL |  | 
10 | O=C(Oc1ccc2[nH]cc(-c3ccc4cc(Cl)ccc4n3)c2c1)c1ccccc1 | > 25 µg/mL | 1.56 µg/mL (≈ 3.91 µM) |  | 
11 | NCCNC(=O)c1cc(-c2c[nH]c3ccc(Br)cc23)nc2cc(Cl)cc(Cl)c12.O=C(O)C(F)(F)F | 1.56 µg/mL | 0.78 µg/mL |  | 
12 | NCCNC(=O)c1cc(-c2c[nH]c3ccc(Br)cc23)nc2cc(Cl)c(C#CCN3CCCCC3)cc12.O=C(O)C(F)(F)F | 6.25 µg/mL | 3.13 µg/mL | 1.56 µg/mL | 3.13 µg/mL
13 | NCc1cc(-c2c[nH]c3ccc(Br)cc23)nc2cc(Cl)ccc12.O=C(O)C(F)(F)F | 1.56 µg/mL | 0.78 µg/mL | 0.39 µg/mL | 0.39 µg/mL
14 | NCCNC(=O)c1cc(-c2c[nH]c3ccc(Br)cc23)nc2cc3c(cc12)OCO3.O=C(O)C(F)(F)F |  | 12.5 µg/mL |  | 
15 | Clc1ccc2nc(-c3c[nH]c4ccc(Br)cc34)ccc2c1 | > 25 µg/mL | 0.62 µg/mL (≈ 1.73 µM) |  | 
16 | COc1ccc2[nH]cc(-c3ccc4cc(Cl)ccc4n3)c2c1 | > 25 µg/mL | > 25 µg/mL |  | 
17 | NCCNC(=O)c1cc(-c2c[nH]c3ccc(Br)cc23)nc2ccccc12.O=C(O)C(F)(F)F | 25 µg/mL | 12.5 µg/mL |  | 
18 | NCCNC(=O)c1cc(-c2c[nH]c3ccc(Br)cc23)nc2c(Cl)c(Cl)ccc12.O=C(O)C(F)(F)F | 0.78 µg/mL | 0.78 µg/mL |  | 
19 | Fc1ccc2[nH]cc(-c3ccc4cc(Cl)ccc4n3)c2c1 | 12.5 µg/mL (≈ 42.1 µM) | 0.78 µg/mL (≈ 2.63 µM) |  | 
20 | Fc1ccc2c(-c3ccc4cc(Cl)ccc4n3)c[nH]c2c1 | 6.25 µg/mL (≈ 21.1 µM) | 1.56 µg/mL (≈ 5.26 µM) |  | 
21 | NCCNC(=O)c1cc(-c2c[nH]c3ccc(Br)cc23)nc2cc(Cl)ccc12.O=C(O)C(F)(F)F | 1.56 µg/mL | 0.78 µg/mL | 0.78 µg/mL | 0.39 µg/mL
22 | O=C(O)c1cc(-c2c[nH]c3ccc(Br)cc23)nc2cc(Cl)ccc12 | 25 µg/mL (≈ 62.2 µM) | 25 µg/mL (≈ 62.2 µM) |  | 
23 | N#Cc1ccc2[nH]cc(-c3ccc4cc(Cl)ccc4n3)c2c1 | > 25 µg/mL | > 25 µg/mL |  | 
24 | NCCNC(=O)c1cc(-c2c[nH]c3ccc(Br)cc23)nc2c(F)cccc12.O=C(O)C(F)(F)F | 12.5 µg/mL | 6.25 µg/mL |  | 
25 | NCCNC(=O)c1cc(-c2c[nH]c3ccc(Br)cc23)nc2cc(F)ccc12.O=C(O)C(F)(F)F | 3.13 µg/mL | 3.13 µg/mL |  | 
26 | Fc1cccc2[nH]cc(-c3ccc4cc(Cl)ccc4n3)c12 | > 25 µg/mL | > 25 µg/mL |  | 
